For test [1], the system named is Staphylococcus aureus. As to the kind of experiment: Potentiation of oxacillin against methicillin resistant Staphylococcus aureus OM505 assessed as fold increase in oxacillin activity. In kind it is functional.
Test [2] deals with Staphylococcus aureus. As to the kind of experiment: Potentiation of oxacillin against methicillin resistant Staphylococcus aureus OM481 assessed as fold increase in oxacillin activity. In kind it is functional.
The test system of test [3] is Staphylococcus aureus. As to the kind of experiment: Potentiation of oxacillin against methicillin resistant Staphylococcus aureus OM584 assessed as fold increase in oxacillin activity. In kind it is functional.
For test [4], the system named is Staphylococcus aureus. As to the kind of experiment: Potentiation of oxacillin against methicillin resistant Staphylococcus aureus OM623 assessed as fold increase in oxacillin activity. The format is functional.
Test [5] has as its system Staphylococcus aureus. As to the kind of experiment: Antibacterial activity against methicillin resistant Staphylococcus aureus ATCC 43300. In kind it is functional.
Test [6] concerns the target T1, MecA (Staphylococcus aureus, UniProt Q7DHH4).
T1 sequence (Q7DHH4 whole entry): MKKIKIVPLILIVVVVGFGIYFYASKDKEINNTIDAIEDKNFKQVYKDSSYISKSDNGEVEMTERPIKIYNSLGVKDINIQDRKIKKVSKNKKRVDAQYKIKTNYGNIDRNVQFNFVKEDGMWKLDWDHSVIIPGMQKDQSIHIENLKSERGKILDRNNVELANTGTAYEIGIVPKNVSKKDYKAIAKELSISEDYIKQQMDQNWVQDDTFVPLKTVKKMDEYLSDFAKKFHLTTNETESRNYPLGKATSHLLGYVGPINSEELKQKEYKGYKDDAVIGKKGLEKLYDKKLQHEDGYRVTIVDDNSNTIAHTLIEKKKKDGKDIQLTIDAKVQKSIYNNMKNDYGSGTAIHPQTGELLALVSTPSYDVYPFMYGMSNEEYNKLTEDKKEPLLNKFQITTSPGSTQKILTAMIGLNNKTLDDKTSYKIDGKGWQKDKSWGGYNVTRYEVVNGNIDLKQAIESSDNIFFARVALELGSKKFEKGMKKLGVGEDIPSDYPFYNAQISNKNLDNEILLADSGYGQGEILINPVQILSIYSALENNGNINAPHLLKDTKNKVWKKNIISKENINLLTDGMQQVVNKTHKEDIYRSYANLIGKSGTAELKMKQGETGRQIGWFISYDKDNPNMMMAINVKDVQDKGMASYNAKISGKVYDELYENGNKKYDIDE
In words: Binding affinity to Staphylococcus aureus ATCC 43300 PBP2a.

Test [7] relates to Staphylococcus aureus. In words: Antibacterial activity against methicillin resistant Staphylococcus aureus mp 1. The format is functional.
Test [8] has as its target T1, MecA. As to the kind of experiment: Displacement of [3H]-penicillin from Staphylococcus aureus PBP2a.
Test [9] relates to Staphylococcus aureus. In words: Antibacterial activity against methicillin resistant Staphylococcus aureus. In kind it is functional.
The target of test [10] is T1, MecA. As to the kind of experiment: Binding affinity to methicillin resistant Staphylococcus aureus PBP2a by MST method.
Test [11] concerns the target T2, Penicillin-binding protein 2x (Streptococcus pneumoniae serotype 4 (strain ATCC BAA-334 / TIGR4), UniProt P14677).
T2 sequence (P14677 whole entry): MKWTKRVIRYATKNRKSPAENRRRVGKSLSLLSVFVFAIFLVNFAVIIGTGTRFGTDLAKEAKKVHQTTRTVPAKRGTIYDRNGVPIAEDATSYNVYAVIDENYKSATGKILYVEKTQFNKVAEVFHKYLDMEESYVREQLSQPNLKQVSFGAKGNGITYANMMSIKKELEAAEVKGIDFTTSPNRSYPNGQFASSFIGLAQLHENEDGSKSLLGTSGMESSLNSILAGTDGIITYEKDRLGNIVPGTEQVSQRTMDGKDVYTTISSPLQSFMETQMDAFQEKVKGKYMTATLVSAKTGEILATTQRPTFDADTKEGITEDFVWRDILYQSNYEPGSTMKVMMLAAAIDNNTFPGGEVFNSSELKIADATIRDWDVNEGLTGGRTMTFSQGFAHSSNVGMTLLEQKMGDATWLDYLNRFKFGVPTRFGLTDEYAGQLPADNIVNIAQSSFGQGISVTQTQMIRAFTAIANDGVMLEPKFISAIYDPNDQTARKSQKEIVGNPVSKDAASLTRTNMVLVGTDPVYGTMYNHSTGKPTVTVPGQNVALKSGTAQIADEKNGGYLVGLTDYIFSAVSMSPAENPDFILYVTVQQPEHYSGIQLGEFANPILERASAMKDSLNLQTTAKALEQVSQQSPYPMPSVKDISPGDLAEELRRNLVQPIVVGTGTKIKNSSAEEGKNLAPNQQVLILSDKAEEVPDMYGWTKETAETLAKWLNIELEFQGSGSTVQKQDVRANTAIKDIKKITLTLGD
In words: Binding affinity to Streptococcus pneumoniae PBP2x.

In test [12] the test system is Staphylococcus aureus. As to the kind of experiment: Antibacterial activity against methicillin resistant Staphylococcus aureus TMHS-5006. In kind it is functional.
A short description of test [13]: Binding affinity to methicillin sensitive Staphylococcus aureus PBP4.
Test [14] can be described thus: Binding affinity to methicillin sensitive Staphylococcus aureus PBP3.
For test [15], the target named is T1, MecA. As to the kind of experiment: Binding affinity to methicillin resistant Staphylococcus aureus PBP2a.
For test [16], the system named is Staphylococcus aureus. In words: Antibacterial activity against methicillin resistant Staphylococcus aureus 13101. In kind it is functional.
Test [17] deals with T3, Penicillin-binding protein 1 (Staphylococcus aureus, UniProt Q53725).
T3 sequence (Q53725 whole entry): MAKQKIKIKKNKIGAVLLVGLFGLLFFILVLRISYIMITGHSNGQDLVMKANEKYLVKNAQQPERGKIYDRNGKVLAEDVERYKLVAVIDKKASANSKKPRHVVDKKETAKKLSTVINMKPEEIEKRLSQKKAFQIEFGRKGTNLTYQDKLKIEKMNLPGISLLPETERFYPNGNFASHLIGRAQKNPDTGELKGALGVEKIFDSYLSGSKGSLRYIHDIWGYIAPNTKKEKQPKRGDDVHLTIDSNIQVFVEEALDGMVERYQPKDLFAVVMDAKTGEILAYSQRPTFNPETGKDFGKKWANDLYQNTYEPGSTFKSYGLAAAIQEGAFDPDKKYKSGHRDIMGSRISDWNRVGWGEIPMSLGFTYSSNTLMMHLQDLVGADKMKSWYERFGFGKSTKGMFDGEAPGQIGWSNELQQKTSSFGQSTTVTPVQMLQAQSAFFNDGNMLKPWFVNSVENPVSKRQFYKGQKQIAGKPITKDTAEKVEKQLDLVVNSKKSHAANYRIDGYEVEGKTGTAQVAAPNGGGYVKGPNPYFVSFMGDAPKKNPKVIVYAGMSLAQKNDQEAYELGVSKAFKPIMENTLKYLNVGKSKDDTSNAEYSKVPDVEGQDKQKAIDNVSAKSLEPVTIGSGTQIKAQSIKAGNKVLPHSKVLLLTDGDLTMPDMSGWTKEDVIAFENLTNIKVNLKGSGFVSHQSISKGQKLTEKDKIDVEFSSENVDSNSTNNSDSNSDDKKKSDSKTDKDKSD
In words: Binding affinity to methicillin sensitive Staphylococcus aureus PBP1.

Test [18] deals with Staphylococcus aureus. As to the kind of experiment: Antibacterial activity against methicillin resistant Staphylococcus aureus TMHS-3125. In kind it is functional.
Test [19] concerns Staphylococcus aureus. In words: Antibacterial activity against methicillin resistant Staphylococcus aureus TMHS-5007. The format is functional.
Test [20] relates to Staphylococcus aureus. In words: Antibacterial activity against methicillin resistant Staphylococcus aureus 4977. In kind it is functional.
Test [21] in a line: Binding affinity to methicillin sensitive Staphylococcus aureus PBP2.

Converted amounts (≈) assume the structure as drawn.

For `O=C(O[C@H]1[C@@H]2OC(=O)c3cc(O)c(O)c(O)c3-c3c(cc(O)c(O)c3O)C(=O)OC[C@H]2OC(O)[C@@H]1OC(=O)c1cc(O)c(O)c(O)c1)c1cc(O)c(O)c(O)c1` (some centres undefined), the “fold change (FC)” value in [1], in [2], in test [3] and in test [4] was 100 in each case.
`CCCOc1cccc(C(=O)Nc2ccccc2C(=O)O)c1`: the MIC in test [5] and in [7] was 512 µg/mL (≈ 1710 µM) each time. In [6], the IC50 (as a rule, the concentration that gives 50% inhibition) was determined as 910 µM.
For `C[C@@H](O)[C@H]1C(=O)N2C(C(=O)[O-])=C(c3ccc4c(c3)-c3ccc(C[n+]5ccn(C)c5)cc3C4=O)[C@H](C)[C@H]12`, the IC50 in [8] was 2480 nM. It took 16 µg/mL (≈ 33.1 µM) to inhibit growth in test [9] (MIC).
Consider `CCCOc1ccc2cc(C(=O)Nc3ccc(Br)cc3C(=O)O)ccc2c1`, for which the MIC in [5] and in test [7] was 128 µg/mL (≈ 299 µM) each time. Moreover, in test [6], the half-inhibitory concentration (IC50) worked out at 210 µM.
`COC(=O)C1=C[C@]2(C)C[C@@]34CC[C@@H]5[C@H](C=CC(=O)C5(C)C)[C@]35OC[C@]14[C@](C)(CC2=O)O5`: the affinity in test [10], expressed as Kd, was 18.4 µM. In addition, the MIC (commonly the lowest concentration that inhibits growth of the organism) in test [9] turned out to be 32 µg/mL (≈ 75 µM).
Regarding `CCCOc1cccc(C(=O)Nc2ccc(C)cc2C(=O)O)c1`, the MIC in test [5] and in test [7] was 256 µg/mL (≈ 817 µM) throughout. Also, the IC50 in test [6] is 680 µM.
Regarding `CCCOc1cccc(C(=O)Nc2ccc(Br)cc2C(=O)O)c1`, the MIC in test [5] and in [7] was 32 µg/mL (≈ 84.6 µM) in each case. In test [6], this molecule gave an IC50 of 230 µM.
`CCCCOc1ccc2cc(S(=O)(=O)Nc3ccccc3C(=O)O)ccc2c1`: the MIC in [5] and in [7] was 32 µg/mL (≈ 80.1 µM) each time. Further, the IC50 in test [6] was determined as 97 µM; in test [11], 391 µM.
Take `CCO/N=C(\C(=O)N[C@@H]1C(=O)N2C(C(=O)[O-])=C(Sc3nc(-c4cc[n+](C)cc4)cs3)CS[C@H]12)c1nsc(N)n1` [CEFTAROLINE]: the MIC in test [12] is more than 32 µg/mL; in test [16], 2 µg/mL (≈ 3.31 µM); in [18], more than 32 µg/mL; in [19], more than 32 µg/mL; in [20], 2 µg/mL (≈ 3.31 µM). Moreover, the IC50 in [13] was more than 1 µg/mL; in test [14], 0.1 µg/mL (≈ 0.165 µM); in test [15] it was 265 nM; in [17], 165 nM; in test [21] it was 0.1 µg/mL (≈ 0.165 µM).
Molecule `Nc1nc(/C(=N/O)C(=O)N[C@@H]2C(=O)N3C(C(=O)O)=C(/C=C4\CCN([C@@H]5CCNC5)C4=O)CS[C@H]23)ns1` [CEFTOBIPROLE] came in with an MIC in [9] of 0.5 µg/mL (≈ 0.935 µM).
Consider `O=C(O[C@@H]1O[C@@H]2COC(=O)c3cc(O)c(O)c(O)c3-c3c(cc(O)c(O)c3O)C(=O)O[C@H]([C@H]1O)[C@@H]2O)c1cc(O)c(O)c(O)c1` [CORILAGIN], for which the “fold change (FC)” value in test [1], in [2], in test [3] and in test [4] was 100 throughout.

Source of the values: ChEMBL document CHEMBL5244239, “Penicillin binding protein 2a: An overview and a medicinal chemistry perspective” (Eur J Med Chem, 2020).
